These results are taken from ChEMBL document CHEMBL1138623, “Synthesis and evaluation of aryl-substituted diarylpropionitriles, selective ligands for estrogen receptor beta, as positron-emission tomographic imaging agents” (Bioorg Med Chem, 2009).

Structures are written as SMILES.

The species named for the test is Homo sapiens. In words: Selectivity ratio of relative binding affinity for full-length human estrogen receptor beta to ratio of relative binding affinity for full length human estrogen receptor alpha.

As for `N#CC(Cc1ccc(O)c(CCCF)c1)c1ccc(O)cc1` (stereo unspecified), the RBA is 45%.

On to `N#CC(Cc1ccc(O)c(F)c1)c1ccc(O)cc1` (stereo unspecified), for which the RBA is 272%.

As to `N#CC(Cc1ccc(O)c(I)c1)c1ccc(O)cc1` (stereo unspecified), the RBA came out at 140%.

`N#CC(Cc1ccc(O)c(CCF)c1)c1ccc(O)cc1` (stereo unspecified): the RBA is 58%.

Regarding `N#CC(Cc1ccc(O)c(Cl)c1)c1ccc(O)cc1` (stereo unspecified), the RBA came out at 112%.

As for `N#CC(Cc1ccc(O)c(Br)c1)c1ccc(O)cc1` (stereo unspecified), the RBA came to 108%.

With `N#CC(c1ccc(O)cc1)C(CF)c1ccc(O)cc1` (stereo unspecified), the RBA was determined as 21%.

`Cc1cc(CC(C#N)c2ccc(O)cc2)ccc1O` (stereo unspecified): the RBA was 139%.

Regarding `CC(c1ccc(O)cc1)C(C#N)c1ccc(O)cc1` (stereo unspecified), the RBA worked out at 11%.

Consider `N#CC(Cc1ccc(O)c(O)c1)c1ccc(O)cc1` (stereo unspecified), for which the RBA amounted to 106%.

`N#CC(Cc1ccc(O)c(CO)c1)c1ccc(O)cc1` (stereo unspecified): the RBA is 19%.
